A value given as a limit tells only on which side of the number the result lay.

Tested on in one data set: not listed separately
Kind of data set: Reversal potential is determined electrophysiologically against the GABA A receptor.
Conditions: not given
It is filed as functional.
As to `Oc1cc(C2CCNCC2)no1`, the Reverse potential was found to be 4.3.
Still for that read-out and setting: for `Oc1cc(C2=CCNCC2)on1` the value was 5.6; for `Oc1cc(C2=CCNCC2)sn1`, 5.3; for `Oc1cc(C2CCNCC2)sn1`, 5.5.
On the same count and under the same terms, as for `O=C(O)C1=CCNCC1` [ISOGUVACINE], the figure is 5.2.
Still for that read-out and setting: as for `Oc1cc(C2CCNCC2)on1`, the figure is 5.9.

For a further data set, the species on record is Rattus norvegicus. Kind of data set: cells. It is filed as functional, organism-based. To be noted: Brain.
As usually defined, the IC50 is the point on the concentration scale where inhibition reaches its midpoint. High values mean weaker potency in that assay, low ones greater potency in that assay. For the molecule `O=C(O)/C=C/C1CCNCC1`, the concentration for half-maximal inhibition (IC50) is > 300 µM.
For `O=C(O)/C=C/C1=CCNCC1`, the IC50 is > 300 µM.
Still for that read-out and setting: for `Oc1cc(C2CCNCC2)no1` the value was > 300 µM; for `Oc1cc(C2=CCNCC2)on1`, > 300 µM; for `Oc1cc(C2=CCNCC2)sn1`, > 300 µM.
Same read-out and setting: as for `O=C(O)CCC1=CCNCC1`, the figure is > 300 µM.
Take `Oc1cc(C2CCNCC2)sn1`: the IC50 is > 300 µM.
Turning to `O=C(O)C1=CCNCC1` [ISOGUVACINE], the IC50 is > 300 µM.
Regarding `Oc1cc(C2CCNCC2)on1`, the IC50 is > 300 µM.
As to `O=C(O)CCC1CCNCC1`, the IC50 was > 300 µM.

For the next data set, the target named is GABA B receptor (Rattus norvegicus, UniProt O88871+Q9Z0U4).
Chain of GABA B receptor (Q9Z0U4 whole entry): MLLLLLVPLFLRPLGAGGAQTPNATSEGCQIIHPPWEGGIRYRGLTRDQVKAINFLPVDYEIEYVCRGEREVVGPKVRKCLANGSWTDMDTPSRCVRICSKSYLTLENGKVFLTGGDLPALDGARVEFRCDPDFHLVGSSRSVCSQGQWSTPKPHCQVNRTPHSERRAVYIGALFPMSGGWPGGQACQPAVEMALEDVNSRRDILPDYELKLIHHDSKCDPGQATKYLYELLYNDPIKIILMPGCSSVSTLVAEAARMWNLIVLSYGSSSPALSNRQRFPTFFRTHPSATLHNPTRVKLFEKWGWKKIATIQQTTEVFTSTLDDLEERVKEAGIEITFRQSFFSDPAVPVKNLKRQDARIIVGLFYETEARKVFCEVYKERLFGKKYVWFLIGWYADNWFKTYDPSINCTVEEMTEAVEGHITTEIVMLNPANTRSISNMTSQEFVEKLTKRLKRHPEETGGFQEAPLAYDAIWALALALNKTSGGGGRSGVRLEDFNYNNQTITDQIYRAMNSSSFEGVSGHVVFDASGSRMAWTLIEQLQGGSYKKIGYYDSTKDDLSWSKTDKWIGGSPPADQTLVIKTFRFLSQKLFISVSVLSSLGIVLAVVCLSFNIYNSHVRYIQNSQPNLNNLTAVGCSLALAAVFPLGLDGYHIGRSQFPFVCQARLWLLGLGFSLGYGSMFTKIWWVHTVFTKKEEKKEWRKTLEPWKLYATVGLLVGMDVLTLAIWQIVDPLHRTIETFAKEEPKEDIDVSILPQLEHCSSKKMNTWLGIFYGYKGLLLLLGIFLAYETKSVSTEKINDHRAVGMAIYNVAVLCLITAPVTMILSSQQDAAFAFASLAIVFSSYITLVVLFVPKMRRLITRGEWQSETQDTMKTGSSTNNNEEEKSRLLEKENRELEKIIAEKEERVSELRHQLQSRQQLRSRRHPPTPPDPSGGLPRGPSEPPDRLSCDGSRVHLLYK
Chain of GABA B receptor (O88871 whole entry): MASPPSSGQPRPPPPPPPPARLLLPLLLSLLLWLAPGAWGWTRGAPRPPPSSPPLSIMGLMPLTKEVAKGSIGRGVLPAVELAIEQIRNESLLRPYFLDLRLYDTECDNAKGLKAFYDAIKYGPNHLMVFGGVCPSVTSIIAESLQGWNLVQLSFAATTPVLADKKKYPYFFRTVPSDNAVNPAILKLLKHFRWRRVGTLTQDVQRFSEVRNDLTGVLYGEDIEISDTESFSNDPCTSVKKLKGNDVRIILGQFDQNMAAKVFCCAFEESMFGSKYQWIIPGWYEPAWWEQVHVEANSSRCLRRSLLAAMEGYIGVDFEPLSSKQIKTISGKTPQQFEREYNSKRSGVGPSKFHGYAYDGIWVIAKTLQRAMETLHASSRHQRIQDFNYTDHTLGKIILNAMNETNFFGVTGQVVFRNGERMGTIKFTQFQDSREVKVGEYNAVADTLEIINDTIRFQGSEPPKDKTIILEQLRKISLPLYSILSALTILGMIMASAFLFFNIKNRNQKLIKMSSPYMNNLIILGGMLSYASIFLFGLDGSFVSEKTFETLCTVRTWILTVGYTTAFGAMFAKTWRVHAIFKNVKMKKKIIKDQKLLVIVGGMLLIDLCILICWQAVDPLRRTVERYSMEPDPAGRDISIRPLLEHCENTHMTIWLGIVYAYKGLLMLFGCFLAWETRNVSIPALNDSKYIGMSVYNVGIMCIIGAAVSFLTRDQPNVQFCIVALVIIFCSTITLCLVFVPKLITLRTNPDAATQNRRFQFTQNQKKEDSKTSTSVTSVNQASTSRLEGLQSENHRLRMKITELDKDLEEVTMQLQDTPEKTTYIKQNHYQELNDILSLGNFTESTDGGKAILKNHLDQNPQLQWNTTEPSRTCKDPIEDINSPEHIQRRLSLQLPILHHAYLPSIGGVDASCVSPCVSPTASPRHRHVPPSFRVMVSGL
Assay: not given
Conditions: not given
For the molecule `O=C(O)/C=C/C1CCNCC1`, the IC50 is > 100 µM.
For the molecule `O=C(O)/C=C/C1=CCNCC1`, the IC50 is > 100 µM.
Consider `Oc1cc(C2CCNCC2)no1`, for which the IC50 was > 100 µM.
Turning to `Oc1cc(C2=CCNCC2)on1`, the IC50 was > 100 µM.
The same measure, in the same setting: as for `O=c1cc(C2=CCNCC2)s[nH]1`, the figure is > 100 µM.
Still for that read-out and setting: as for `O=C(O)CCC1=CCNCC1`, the figure is > 100 µM.
`Oc1cc(C2CCNCC2)sn1`: the IC50 was > 100 µM.
Still for that read-out and setting: as for `O=C(O)C1=CCNCC1` [ISOGUVACINE], the figure is > 100 µM.
Consider `O=C(O)CCC1CCNCC1`, for which the IC50 is > 100 µM.

In another data set the target is GABA-A receptor; anion channel.
Assay: not given
Conditions: not given
As for `O=C(O)/C=C/C1CCNCC1`, it took 52 µM to reach half-maximal inhibition (IC50).
Still for that read-out and setting: as for `O=C(O)/C=C/C1=CCNCC1`, the figure is > 100 µM; as for `Oc1cc(C2CCNCC2)no1`, 26 µM; as for `Oc1cc(C2=CCNCC2)on1`, 32 µM.
Take `O=C(O)CCC1=CCNCC1`: the IC50 was > 100 µM.
`Oc1cc(C2CCNCC2)sn1` displayed an IC50 of 1.3 µM.
Same read-out and setting: for `O=C(O)C1=CCNCC1` [ISOGUVACINE] the value was 0.022 µM.
For `O=C(O)CCC1CCNCC1`, the IC50 was > 100 µM.

Tested on in another data set: not listed separately
Kind of data set: physchem.
Conditions: not given
As a reminder, the pKa is the pH at which an ionisable group is half protonated. The low end stands for a stronger acid or weaker base, the high end for a weaker acid or stronger base. Molecule `Oc1cc(C2=CCNCC2)on1` had a pKa of 5.1.
As for `Oc1cc(C2CCNCC2)sn1`, the pKa worked out at 6.9.
On the same count and under the same terms, for `Oc1cc(C2CCNCC2)on1` the value was 5.3.

Source of the values: ChEMBL document CHEMBL1128521, “Partial GABAA receptor agonists. Synthesis and in vitro pharmacology of a series of nonannulated analogs of 4,5,6,7-tetrahydroisoxazolo[5,4-c]pyridin-3-ol” (J Med Chem, 1995).
